From patent US20240148701A1, “WOULD HEALING METHODS” (The University of Sydney, priority 2021, published 2024) come the findings set out here.

For one assay, the system named is nitrotyrosine. The assay is described as follows: Immunoblot of nitrotyrosine in hind limb tissue. It counts as in vivo, mouse. Particulars: ischemic hind limbs of type 1 diabetic mice. On the procedure: Gastrocnemius samples were stored at −80° C. and then mechanically homogenized in ice-cold lysis buffer containing 150 mmol/L NaCl, 200 mmol/L Tris-HCl (pH 8.0), 1% Triton X-100, 0.5% deoxycholic acid, 0.1% SDS, N-ethylmaleimide (25 mM) and protease inhibitors (cOmplete™ EDTA-free, Roche Diagnostics). 30 μg of protein lysate was denatured and run under reducing conditions on SDS-PAGE (Bolt™ pre-cast gels and reagents, Thermofisher Scientific, Australia) and transferred onto Immobilon polyvinylidene fluoride membrane (Merck Millipore, Australia). Membranes were incubated in primary antibodies directed at determining protein expression of the following: Nox isoforms (anti-Nox 2, 1:5000; Abcam, Australia; anti-Nox-4, 1:5000; Abcam, Australia); reactive nitrogen species (anti-nitrotyrosine, 1:1000; Abcam, Australia); and both expression and phosphorylation of eNOS (anti Phospho eNOS serine 1177, 1:1000, Cell Signaling Technology, USA; anti-eNOS 1:1000, BD Biosciences, USA) and Akt (anti Phospho Akt 1:1000, Akt 1:1000, Cell Signaling Technology, USA). Specific secondary antibodies recognizing rabbit or mouse primary antibodies were used (IRDye®, Licor; 1:20,000, USA). Membranes were detected using an Odyssey imaging platform (Licor, USA).
A general note: Immunoblotting shows a protein as a band on a membrane.

A further assay relates to superoxide. The assay is described as follows: Superoxide generation by lucigenin enhanced chemiluminescence in hind limb tissue. The format is in vivo, mouse. The following applies: after 14 days of infusion. On the procedure: Hind limb tissue including the gastrocnemius and adductor muscles were isolated and collected at 14 or 28 days. Tissues were separated and implanted in OCT or placed in cryovials and snap-frozen in liquid nitrogen or were fixed in 10% formalin for 24-hours and then moved to 70% ethanol for storage.
Frozen adductor tissue was prepared for lucigenin-enhanced chemiluminescence assay by homogenising in lysis buffer (250 mM sucrose in phosphate-buffered saline (mM: 129 NaCl, 7 Na2HPO4, 3 NaH2PO4·2H2O, pH 7.4, with protease inhibitors (cOmplete™ EDTA-free, Roche Diagnostics). Sample was added to opaque 96-well plates in the presence of lucigenin (20 μmol/1 N,N′-Dimethyl-9,9′-biacridinium dinitrate) and NADPH (100 μM; β-Nicotinamide adenine dinucleotide 2′-phosphate reduced tetrasodium salt hydrate). The reaction was conducted at room temperature and tracked using a luminometer (Veritas, Turner Biosystems, USA) with an average measurement taken from 20 cycles, as described in Bubb et al., (2018, Microcirulation, e12501). Replicates of each sample were treated with manganese TMPyP (Merck Millipore, Australia, a cell-permeable superoxide dismutase mimetic, 30 μmol/L), during the assay and any signal was subtracted from the total signal as non-superoxide background signal. Superoxide production was normalized to protein concentration or cell count.

For the molecule `C[C@H](Cc1ccc2c(c1)OC(C(=O)[O-])(C(=O)[O-])O2)NC[C@H](O)c1cccc(Cl)c1.[Na+].[Na+]` [CL 316,243], the “decrease of nitrotyrosine protein levels” value in the assay with nitrotyrosine is > 70%. Further, in the assay with superoxide, the “superoxide bioavailability in the ischemic limb” value is reported as “significantly lower”.
